Laboratory results as given in patent publication US20240376094A2, “SELECTIVE BCL-XL PROTAC COMPOUNDS AND METHODS OF USE” (Les Laboratoires Servier, priority 2021, published 2024).

Experiments:
Type in all cases: cell-based
MOLT-4 cells = assay: MOLT-4 cell viability, CTG assay; details: Homo sapiens, MOLT-4, 48 h
Summary of the method: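 Viability read as total ATP luminescence (CTG) after 48 h compound treatment, 11 points at 5-fold spacing in triplicate, cells in RPMI 1640/10% FBS. IC50 is the concentration halving signal relative to control, four-parameter fit, averaged over at least 2 experiments.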

[1] = tested on: EBC-1 lung cancer cell line; assay: EBC-1 cell proliferation, CellTiter-Glo assay; details: Homo sapiens, 120 h; Ebc-1 cell viability, CTG assay, 5 days of treatment; read-out: CTG 5 day Ebc1 GI50
Procedure: (§1) The ability of the BCL-xL degrader low molecular weight compounds to inhibit cell proliferation and survival was assessed using the Promega CellTiter-Glo® proliferation assay on the EBC-1 lung cancer cell line (RCB1965, obtained from RIKEN.) The cells were cultured in media that is optimal for their growth at 5% CO2, 37° C. in a tissue culture incubator. Prior to seeding for the proliferation assay, the cells were split at least 2 days before the assay to ensure optimal growth density. On the day of seeding, cells were lifted off tissue culture flasks using 0.25% trypsin. Cell viability and cell density were determined using a cell counter (Vi-Cell XR Cell Viability Analyzer, Beckman Coulter). Cells with higher than 85% viability were seeded in white clear bottom 384-well plates (Greiner cat #781098) at a density of 1000 cells per well in 50 μL of standard growth media. Plates were incubated at 37° C. overnight in a tissue culture incubator.
The BCL-xL degrader low molecular weight compounds were prepared to desired concentrations. A series of 10 dilutions were made for each prepared compound. The prepared compounds were then added to the cells resulting in final concentrations of 0.508 nM-10 μM. An acoustic transfer device (Echo555, Beckman Coulter) was used to add the compounds to the cells. Each treatment was tested in triplicate assay plates. Plates were incubated at 37° C. overnight or for 5 days in a tissue culture incubator. The ability of the compounds to inhibit cell proliferation and survival was assessed using the Promega CellTiter-Glo® proliferation assay. Plates were incubated at room temperature for 20 minutes to stabilize luminescent signals prior to reading using a multimode plate reader (PHERAstar FSX Microplate Reader, BMG Labtech).
To evaluate the effect of the compound treatments, luminescent counts of untreated cells were taken the day after seeding (Day 0 readings), and after 5 days of treatment (Day 5 readings). The Day 5 readings of the untreated cells were compared to the Day 0 readings. Assays with at least one cell doubling during the incubation period were considered valid. To evaluate the effect of the drug treatments, luminescent counts from wells containing untreated cells (100% viability) were used to normalize treated samples. The concentrations of treatment required to inhibit 50% of cell growth or survival ([…]) were calculated using a four parameter logistic regression equation.

HiBiT-tagged BCL-xL = biological target: T1, HiBiT-tagged BCL-xL (Homo sapiens, UniProt Q07817); assay: NCI-H1650 BCL-xL protein levels, Nano-Glo HiBiT Lytic Detection; details: NCI-H1650 expressing HiBiT-tagged BCL-xL, overnight incubation, read-out: Bcl-xl HIBIT NCIH1650 DC50
T1 construct: expressed in transfected cells; host or cells: NCI-H1650 (ATCC No. CRL-5883), engineered HiBiT cell line
T1 sequence (Q07817 whole entry): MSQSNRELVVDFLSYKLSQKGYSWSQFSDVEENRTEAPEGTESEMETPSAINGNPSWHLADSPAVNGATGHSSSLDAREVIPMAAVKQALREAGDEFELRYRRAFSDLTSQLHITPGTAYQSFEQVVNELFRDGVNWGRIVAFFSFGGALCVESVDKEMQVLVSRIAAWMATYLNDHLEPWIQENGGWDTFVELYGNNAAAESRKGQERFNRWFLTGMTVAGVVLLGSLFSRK
Procedure: as §1, with “degrade BCL-xL protein” for “inhibit cell proliferation and survival”, “Nano-Glo® HiBiT Lytic Detection System. The NCI-H1650 (ATCC No. CRL-5883) was engineered to express HiBiT-tagged BCL-xL. The NCI-H1650 HiBiT” for “CellTiter-Glo® proliferation assay on the EBC-1 lung cancer”, “was” for “(RCB1965, obtained from RIKEN.) The cells were”, “protein level” for “proliferation”, “5000” for “1000”, “30” for “50”
The BCL-xL degrader low molecular weight compounds were prepared to desired concentrations. A series of 10 dilutions were made for each prepared compound. The prepared compounds were then added to the cells resulting in final concentrations of 0.508 nM-10 μM. An acoustic transfer device (Echo555, Beckman Coulter) was used to add the compounds to the cells. Each treatment was tested in triplicate assay plates. Plates were incubated at 37° C. overnight in a tissue culture incubator.
BCL-xL degradation was assessed through the addition of 30 μL of Nano-Glo® HiBiT Lytic Reagent (Promega, cat #N3040), a reagent which lyses cells and contains a furimazine substrate and the large subunit (LgBiT) used in NanoLuc® Binary Technology. The LgBiT subunit having high affinity to a HiBiT-tagged protein will bind HiBiT, if present, resulting in complex formation of a luminescent NanoBiT® enzyme. This reaction will emit a luminescent signal proportional to the amount of HiBiT-tagged BCL-xL present in the cell lysate. Plates were incubated at room temperature for 20 minutes to stabilize luminescent signals prior to reading using a luminescence reader (PHERAstar FSX Microplate Reader, BMG Labtech).
To evaluate the effect of the drug treatments, luminescent counts from wells containing untreated cells (100% HiBiT-tagged BCL-xL) were used to normalize treated samples. The concentrations of treatment required to inhibit 50% were calculated using a four parameter logistic regression equation.

Structure (SMILES) | IC50 (MOLT-4 cells) | GI50 [1] | DC50 (HiBiT-tagged BCL-xL)
Cc1cc(N(CCCCN(C)C(=O)CCCCCCCCCCC(=O)N[C@H](C(=O)N2C[C@H](O)C[C@H]2C(=O)N[C@@H](C)c2ccc(-c3scnc3C)cc2)C(C)(C)C)c2ccc(-c3cnn(CC45CC6(C)CC(C)(C4)CC(OCCN(C)C)(C6)C5)c3C)c(C(=O)N(C)C)n2)nnc1Nc1nc2ccccc2s1 [Example 128, N′-[4-[[6-(1,3-benzothiazol-2-ylamino)-5-methyl-pyridazin-3-yl]-[5-[1-[[3-[2-(dimethylamino)ethoxy]-5,7-dimethyl-1-adamantyl]methyl]-5-methyl-pyrazol-4-yl]-6-(dimethylcarbamoyl)-2-pyridyl]amino]butyl]-N-[(1S)-1-[(2S,4R)-4-hydroxy-2-[[(1S)-1-[4-(4-methylthiazol-5-yl)phenyl]ethyl]carbamoyl]pyrrolidine-1-carbonyl]-2,2-dimethyl-propyl]-N′-methyl-dodecanediamide] | 0.067 µM | 0.869 µM | 0.018 µM
Cc1ncsc1-c1ccc([C@H](C)NC(=O)[C@@H]2C[C@@H](O)CN2C(=O)[C@@H](NC(=O)C2CCN(C(=O)CCCCCCCCCCCN(C)CCOC34CC5(C)CC(C)(CC(Cn6ncc(-c7ccc(N8CCCc9c8nnc(Nc8nc%10ccccc%10s8)c9C)nc7C(=O)O)c6C)(C5)C3)C4)CC2)C(C)(C)C)cc1 [Example 86, 6-[3-(1,3-benzothiazol-2-ylamino)-4-methyl-6,7-dihydro-5H-pyrido[2,3-c]pyridazin-8-yl]-3-[1-[[3-[2-[[12-[4-[[(1S)-1-[(2S,4R)-4-hydroxy-2-[[(1S)-1-[4-(4-methylthiazol-5-yl)phenyl]ethyl]carbamoyl]pyrrolidine-1-carbonyl]-2,2-dimethyl-propyl]carbamoyl]-1-piperidyl]-12-oxo-dodecyl]-methyl-amino]ethoxy]-5,7-dimethyl-1-adamantyl]methyl]-5-methyl-pyrazol-4-yl]pyridine-2-carboxylic acid] | 0.0137 µM | 0.018 µM | > 1.67 µM
Cc1ncsc1-c1ccc([C@H](C)NC(=O)[C@@H]2C[C@@H](O)CN2C(=O)[C@@H](NC(=O)CCCCCCCCCCCCCN(C)CCOC23CC4(C)CC(C)(CC(Cn5ncc(-c6ccc(N7CCCc8c7nnc(Nc7nc9ccccc9s7)c8C)nc6CO)c5C)(C4)C2)C3)C(C)(C)C)cc1 [Example 155, (2S,4R)-1-[(2S)-2-[14-[2-[[3-[[4-[6-[3-(1,3-benzothiazol-2-ylamino)-4-methyl-6,7-dihydro-5H-pyrido[2,3-c]pyridazin-8-yl]-2-(hydroxymethyl)-3-pyridyl]-5-methyl-pyrazol-1-yl]methyl]-5,7-dimethyl-1-adamantyl]oxy]ethyl-methyl-amino]tetradecanoylamino]-3,3-dimethyl-butanoyl]-4-hydroxy-N-[(1S)-1-[4-(4-methylthiazol-5-yl)phenyl]ethyl]pyrrolidine-2-carboxamide] | 0.0221 µM | 0.431 µM | > 1.67 µM
Cc1ncsc1-c1ccc([C@H](C)NC(=O)[C@@H]2C[C@@H](O)CN2C(=O)[C@@H](NC(=O)CCOCCOCCOCCN(C)C(=O)c2nc(N3CCCc4c3nnc(Nc3nc5ccccc5s3)c4C)ccc2-c2cnn(CC34CC5(C)CC(C)(C3)CC(OCCN3CCCC3)(C5)C4)c2C)C(C)(C)C)cc1 [Example 160, 6-(3-(benzo[d]thiazol-2-ylamino)-4-methyl-6,7-dihydropyrido[2,3-c]pyridazin-8(5H)-yl)-3-(1-(((1r,3R,5S,7s)-3,5-dimethyl-7-(2-(pyrrolidin-1-yl)ethoxy)adamantan-1-yl)methyl)-5-methyl-1H-pyrazol-4-yl)-N—((S)-14-((2S,4R)-4-hydroxy-2-(((S)-1-(4-(4-methylthiazol-5-yl)phenyl)ethyl)carbamoyl)pyrrolidine-1-carbonyl)-15,15-dimethyl-12-oxo-3,6,9-trioxa-13-azahexadecyl)-N-methylpicolinamide] | – | 0.058 µM | 0.002 µM
Cc1ncsc1-c1ccc([C@H](C)NC(=O)[C@@H]2C[C@@H](O)CN2C(=O)[C@@H](NC(=O)CCC(=O)N2CCC[C@@H](NC(=O)c3nc(N4CCCc5c4nnc(Nc4nc6ccccc6s4)c5C)ccc3-c3cnn(CC45CC6(C)CC(C)(C4)CC(OCCN4CCCC4)(C6)C5)c3C)C2)C(C)(C)C)cc1 [Example 171] | – | 0.121 µM | > 1.67 µM
Cc1ncsc1-c1ccc([C@H](C)NC(=O)[C@@H]2C[C@@H](O)CN2C(=O)[C@@H](NC(=O)C[C@H]2CC[C@H](NC(=O)c3nc(N4CCCc5c4nnc(Nc4nc6ccccc6s4)c5C)ccc3-c3cnn(CC45CC6(C)CC(C)(C4)CC(OCCN4CCCC4)(C6)C5)c3C)CC2)C(C)(C)C)cc1 [Example 164, 6-(3-(benzo[d]thiazol-2-ylamino)-4-methyl-6,7-dihydropyrido[2,3-c]pyridazin-8(5H)-yl)-3-(1-(((1r,3R,5S,7s)-3,5-dimethyl-7-(2-(pyrrolidin-1-yl)ethoxy)adamantan-1-yl)methyl)-5-methyl-1H-pyrazol-4-yl)-N-((1S,4R)-4-(2-(((S)-1-((2S,4R)-4-hydroxy-2-(((S)-1-(4-(4-methylthiazol-5-yl)phenyl)ethyl)carbamoyl)pyrrolidin-1-yl)-3,3-dimethyl-1-oxobutan-2-yl)amino)-2-oxoethyl)cyclohexyl)picolinamide] | – | 0.035 µM | 0.002 µM
Cc1ncsc1-c1ccc([C@H](C)NC(=O)[C@@H]2C[C@@H](O)CN2C(=O)[C@@H](NC(=O)COC2CCN(C(=O)c3nc(N4CCCc5c4nnc(Nc4nc6ccccc6s4)c5C)ccc3-c3cnn(CC45CC6(C)CC(C)(C4)CC(OCCN4CCCC4)(C6)C5)c3C)CC2)C(C)(C)C)cc1 [Example 166, (2S,4R)-1-((S)-2-(2-((1-(6-(3-(benzo[d]thiazol-2-ylamino)-4-methyl-6,7-dihydropyrido[2,3-c]pyridazin-8(5H)-yl)-3-(1-(((1r,3R,5S,7s)-3,5-dimethyl-7-(2-(pyrrolidin-1-yl)ethoxy)adamantan-1-yl)methyl)-5-methyl-1H-pyrazol-4-yl)picolinoyl)piperidin-4-yl)oxy)acetamido)-3,3-dimethylbutanoyl)-4-hydroxy-N—((S)-1-(4-(4-methylthiazol-5-yl)phenyl)ethyl)pyrrolidine-2-carboxamide] | – | 0.068 µM | 0.001 µM
